Numbered stars: 1 amine (or outer) side, 2 acyl side, 3 side chain; on linkers, the order of the positions; unused ones are H or OH. Square brackets hold non-standard residues; d marks the D form. Side chains are listed from the residue outwards. Peptide text beside a SMILES is read from it. * marks the point of attachment. C20 diacid = O=C(O)CCCCCCCCCCCCCCCCCCC(=O)*; αMePhe(2-F) = C[C@](N)(Cc1ccccc1F)C(=O)O; γGlu = O=C(O)[C@H](CCC(=O)[*:2])N[*:1]; Orn = NCCC[C@H](N)C(=O)O; AEEA = NCCOCCOCC(=O)O; Aib = CC(C)(N)C(=O)O
Experiments:
[1] = target: T1, human Gcg receptor (Homo sapiens, UniProt P47871); test: [125I]-Glucagon binding (SPA), human Gcg receptor; settings: read-out: hGLcgR Ki, nM (SEM, n)
T1 construct: expressed in transfected cells; crude membranes
T1 sequence (P47871 26-477): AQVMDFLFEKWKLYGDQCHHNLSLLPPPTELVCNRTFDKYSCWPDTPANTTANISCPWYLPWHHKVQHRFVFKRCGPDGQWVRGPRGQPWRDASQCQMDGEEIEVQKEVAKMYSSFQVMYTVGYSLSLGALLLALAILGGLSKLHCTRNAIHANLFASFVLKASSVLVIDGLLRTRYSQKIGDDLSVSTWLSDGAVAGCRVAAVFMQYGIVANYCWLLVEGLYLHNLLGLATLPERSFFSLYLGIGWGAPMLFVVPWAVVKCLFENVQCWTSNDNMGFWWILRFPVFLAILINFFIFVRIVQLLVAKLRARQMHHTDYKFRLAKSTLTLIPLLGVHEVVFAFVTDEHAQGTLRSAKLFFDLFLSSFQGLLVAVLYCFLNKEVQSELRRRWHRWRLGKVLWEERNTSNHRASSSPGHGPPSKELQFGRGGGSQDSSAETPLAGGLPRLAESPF
How it was run: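 Cell pellets were lysed in hypotonic Tris buffer, pH 7.5, homogenized, and spun at low then high speed to give crude membranes. Ki was derived from the fitted IC50.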

[2] = target: human GLP-1R (Homo sapiens, UniProt P43220); test: [125I]-GLP-1 binding (SPA), human GLP-1 receptor; design: expressed in transfected cells; crude membranes; settings: read-out: hGLP1R Ki, (nM) (SEM, n)
Chain of human GLP-1R (P43220 24-463): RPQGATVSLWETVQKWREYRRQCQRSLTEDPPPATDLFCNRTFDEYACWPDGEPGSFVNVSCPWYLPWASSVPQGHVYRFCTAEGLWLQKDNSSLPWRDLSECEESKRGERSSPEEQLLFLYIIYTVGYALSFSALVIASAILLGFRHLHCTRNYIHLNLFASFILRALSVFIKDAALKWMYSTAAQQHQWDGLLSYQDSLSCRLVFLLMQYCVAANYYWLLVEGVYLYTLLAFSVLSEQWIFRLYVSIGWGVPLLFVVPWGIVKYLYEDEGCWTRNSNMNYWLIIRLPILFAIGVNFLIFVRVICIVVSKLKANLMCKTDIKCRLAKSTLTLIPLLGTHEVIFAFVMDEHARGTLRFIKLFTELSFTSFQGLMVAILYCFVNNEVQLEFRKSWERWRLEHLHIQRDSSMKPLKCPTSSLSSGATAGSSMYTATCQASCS
How it was run: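 Crude-membrane binding assay; one membrane prep included 1 mM MgCl2 and 25 units/ml DNAse I during lysis. Assay buffer at pH 7.4 contains 0.1% (w/v) bacitracin and 0.003% (w/v) TWEEN-20. Ki is reported as geometric mean.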

[3] = target: human GLP-1 receptor (GLP-1R) (Homo sapiens, UniProt P43220); test: cAMP pharmacological functional assay in presence of casein, hGLP-1R; format: cell-based; settings: HEK293 cells expressing hGLP-1R, 0.1% Casein, geometric mean; read-out: hGLP1R cAMP Rel EC50 nM (SEM, n)
Chain of human GLP-1 receptor (GLP-1R) (P43220 24-463): as above

[4] = target: T2, human GIP receptor (Homo sapiens, UniProt P48546); test: [125I]-GIP binding (SPA), human GIP receptor; settings: read-out: hGIPR Ki, nM (SEM, n)
T2 construct: expressed in transfected cells; crude membranes
T2 sequence (P48546 22-466): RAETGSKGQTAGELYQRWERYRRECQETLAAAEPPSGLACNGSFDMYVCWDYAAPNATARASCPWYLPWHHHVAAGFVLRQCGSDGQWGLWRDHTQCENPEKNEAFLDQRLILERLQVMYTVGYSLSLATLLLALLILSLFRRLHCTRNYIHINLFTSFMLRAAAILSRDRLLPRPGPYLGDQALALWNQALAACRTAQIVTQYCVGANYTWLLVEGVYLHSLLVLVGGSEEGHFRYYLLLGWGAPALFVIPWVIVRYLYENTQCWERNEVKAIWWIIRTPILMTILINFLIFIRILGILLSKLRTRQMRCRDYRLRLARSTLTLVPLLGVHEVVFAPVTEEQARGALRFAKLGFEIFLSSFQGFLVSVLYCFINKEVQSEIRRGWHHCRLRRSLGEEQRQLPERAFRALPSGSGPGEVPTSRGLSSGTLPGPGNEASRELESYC

[5] = target: T3, gastric inhibitory peptide receptor (GIPR) (Homo sapiens, UniProt P48546); test: cAMP pharmacological functional assay in presence of casein, hGIPR; format: cell-based; settings: HEK293 cells expressing hGIPR, 0.1% Casein, geometric mean; read-out: hGIPR cAMP Rel EC50 nM (SEM, n)
T3 sequence (P48546 22-466): T2 sequence (P48546 22-466)

Compound	Ki [1] [nM]	Ki [2] [nM]	EC50 [3] [nM]	Ki [4] [nM]	EC50 [5] [nM]
CC[C@H](C)[C@H](NC(=O)[C@H](CC(C)C)NC(=O)[C@H](Cc1ccc(O)cc1)NC(=O)[C@@H](CCC(=O)O)NC(=O)[C@@H](NC(=O)[C@H](Cc1ccccc1)NC(=O)[C@H](CCC(=O)O)NC(=O)C(C)(C)NC(=O)[C@H](CCC(N)=O)NC(=O)[C@H](C)NC(=O)[C@H](CCCCNC(=O)COCCOCCNC(=O)COCCOCCNC(=O)CC[C@H](NC(=O)CCCCCCCCCCCCCCCCCCC(=O)O)C(=O)O)NC(=O)[C@H](CCCN)NC(=O)[C@H](CC(=O)O)NC(=O)[C@H](CC(C)C)NC(=O)C(C)(C)NC(=O)[C@@H](NC(=O)[C@H](CO)NC(=O)[C@H](Cc1ccc(O)cc1)NC(=O)[C@H](CC(=O)O)NC(=O)[C@H](CO)NC(=O)[C@@H](NC(=O)[C@](C)(Cc1ccccc1F)NC(=O)[C@@H](NC(=O)CNC(=O)[C@H](CCC(=O)O)NC(=O)C(C)(C)NC(=O)[C@@H](N)Cc1ccc(O)cc1)[C@@H](C)O)[C@@H](C)O)[C@@H](C)CC)[C@@H](C)CC)C(=O)N[C@@H](CCC(=O)O)C(=O)NCC(=O)NCC(=O)N1CCC[C@H]1C(=O)N[C@@H](CO)C(=O)N[C@@H](CO)C(=O)NCC(=O)N[C@@H](C)C(=O)N1CCC[C@H]1C(=O)N1CCC[C@H]1C(=O)N1CCC[C@H]1C(=O)N[C@@H](CO)C(N)=O [Example 250] (H-Y[Aib]EGT[αMePhe(2-F)]TSDYSI[Aib]LD[Orn]K([AEEA-AEEA-γGlu-C20 diacid])AQ[Aib]EFI[dE]YLIEGGPSSGAPPPS-NH2)	198	1.72	0.0306	0.0171	0.0376
CC[C@H](C)[C@H](NC(=O)[C@H](CC(C)C)NC(=O)C(C)(Cc1ccc(O)cc1)NC(=O)[C@@H](CCC(=O)O)NC(=O)[C@@H](NC(=O)[C@H](Cc1ccccc1)NC(=O)[C@H](C)NC(=O)C(C)(C)NC(=O)[C@H](CCC(N)=O)NC(=O)[C@H](C)NC(=O)[C@H](CCCCNC(=O)COCCOCCNC(=O)COCCOCCNC(=O)[C@@H](N)CCCCNC(=O)CCCCCCCCCCCCCCCCCCC(=O)O)NC(=O)[C@H](CCCN)NC(=O)[C@H](CC(=O)O)NC(=O)[C@H](CC(C)C)NC(=O)C(C)(CC(C)C)NC(=O)[C@@H](NC(=O)[C@H](CO)NC(=O)[C@H](Cc1ccncc1)NC(=O)[C@H](CC(=O)O)NC(=O)[C@H](CO)NC(=O)[C@@H](NC(=O)C(C)(Cc1ccccc1F)NC(=O)[C@@H](NC(=O)CNC(=O)[C@H](CCC(=O)O)NC(=O)C(C)(C)NC(=O)[C@@H](N)Cc1ccc(O)cc1)[C@@H](C)O)[C@@H](C)O)[C@@H](C)CC)[C@@H](C)CC)C(=O)N[C@@H](CCC(=O)O)C(=O)NCC(=O)NCC(=O)N1CCC[C@H]1C(=O)N[C@@H](CO)C(=O)N[C@@H](CO)C(=O)NCC(=O)N[C@@H](C)C(=O)N1CCC[C@H]1C(=O)N1CCC[C@H]1C(=O)N1CCC[C@H]1C(=O)N[C@@H](CO)C(N)=O (stereo partly shown) [Example 251]	21.2	1.09	0.081	0.0249	0.0292
CC[C@H](C)[C@H](NC(=O)[C@H](CC(C)C)NC(=O)C(C)(Cc1ccc(O)cc1)NC(=O)[C@@H](CCC(=O)O)NC(=O)[C@@H](NC(=O)[C@H](Cc1ccccc1)NC(=O)[C@H](C)NC(=O)C(C)(C)NC(=O)[C@H](CCC(N)=O)NC(=O)[C@H](C)NC(=O)[C@H](CCCCNC(=O)COCCOCCNC(=O)COCCOCCNC(=O)[C@@H](N)CCCCNC(=O)CCCCCCCCCCCCCCCCCCC(=O)O)NC(=O)[C@H](CCCN)NC(=O)[C@H](CC(=O)O)NC(=O)[C@H](CC(C)C)NC(=O)C(C)(CC(C)C)NC(=O)[C@@H](NC(=O)[C@H](CO)NC(=O)[C@H](Cc1ccncc1)NC(=O)[C@H](CC(=O)O)NC(=O)[C@H](CO)NC(=O)[C@@H](NC(=O)C(C)(Cc1ccccc1F)NC(=O)[C@@H](NC(=O)CNC(=O)[C@H](CCC(=O)O)NC(=O)C(C)(C)NC(=O)[C@@H](N)Cc1ccc(O)cc1)[C@@H](C)O)[C@@H](C)O)[C@@H](C)CC)[C@@H](C)CC)C(=O)N[C@@H](C)C(=O)NCC(=O)NCC(=O)N1CCC[C@H]1C(=O)N[C@@H](CO)C(=O)N[C@@H](CO)C(=O)NCC(=O)N[C@@H](C)C(=O)N1CCC[C@H]1C(=O)N1CCC[C@H]1C(=O)N1CCC[C@H]1C(=O)N[C@@H](CO)C(N)=O (stereo partly shown) [Example 252]	26	0.383	0.0483	0.00971	0.093
CC[C@H](C)[C@H](NC(=O)[C@H](CC(C)C)NC(=O)[C@H](Cc1ccc(O)cc1)NC(=O)[C@H](CCC(=O)O)NC(=O)[C@@H](NC(=O)[C@H](Cc1ccccc1)NC(=O)[C@H](C)NC(=O)[C@H](C)NC(=O)[C@H](CCC(N)=O)NC(=O)[C@H](C)NC(=O)[C@H](CCCCNC(=O)COCCOCCNC(=O)COCCOCCNC(=O)CC[C@H](NC(=O)CCCCCCCCCCCCCCCCCCC(=O)O)C(=O)O)NC(=O)[C@H](CCCCN)NC(=O)[C@H](CC(=O)O)NC(=O)[C@H](CC(C)C)NC(=O)[C@H](CC(C)C)NC(=O)[C@@H](NC(=O)[C@H](CO)NC(=O)[C@H](Cc1ccc(O)cc1)NC(=O)[C@H](CC(=O)O)NC(=O)[C@H](CO)NC(=O)[C@@H](NC(=O)[C@H](Cc1ccccc1)NC(=O)[C@@H](NC(=O)CNC(=O)[C@H](CCC(=O)O)NC(=O)C(C)(C)NC(=O)[C@@H](N)Cc1ccc(O)cc1)[C@@H](C)O)[C@@H](C)O)[C@@H](C)CC)[C@@H](C)CC)C(=O)N[C@@H](CCC(=O)O)C(=O)NCC(=O)NCC(=O)N1CCC[C@H]1C(=O)N[C@@H](CO)C(=O)N[C@@H](CO)C(=O)NCC(=O)N[C@@H](C)C(=O)N1CCC[C@H]1C(=O)N1CCC[C@H]1C(=O)N1CCC[C@H]1C(=O)N[C@@H](CO)C(N)=O [Example 253] (H-Y[Aib]EGTFTSDYSILLDKK([AEEA-AEEA-γGlu-C20 diacid])AQAAFIEYLIEGGPSSGAPPPS-NH2)	> 912	2.57	0.109	0.138	0.219
CC[C@H](C)[C@H](NC(=O)[C@H](CC(C)C)NC(=O)[C@H](Cc1ccc(O)cc1)NC(=O)[C@H](CCC(=O)O)NC(=O)[C@@H](NC(=O)[C@H](Cc1ccccc1)NC(=O)[C@H](C)NC(=O)[C@H](CCC(N)=O)NC(=O)[C@H](CCC(N)=O)NC(=O)[C@H](C)NC(=O)[C@H](CCCCNC(=O)COCCOCCNC(=O)COCCOCCNC(=O)CC[C@H](NC(=O)CCCCCCCCCCCCCCCCCCC(=O)O)C(=O)O)NC(=O)[C@H](CCCCN)NC(=O)[C@H](CC(=O)O)NC(=O)[C@H](CC(C)C)NC(=O)[C@H](CC(C)C)NC(=O)[C@@H](NC(=O)[C@H](CO)NC(=O)[C@H](Cc1ccc(O)cc1)NC(=O)[C@H](CC(=O)O)NC(=O)[C@H](CO)NC(=O)[C@@H](NC(=O)[C@H](Cc1ccccc1)NC(=O)[C@@H](NC(=O)CNC(=O)[C@H](CCC(=O)O)NC(=O)C(C)(C)NC(=O)[C@@H](N)Cc1ccc(O)cc1)[C@@H](C)O)[C@@H](C)O)[C@@H](C)CC)[C@@H](C)CC)C(=O)N[C@@H](CCC(=O)O)C(=O)NCC(=O)NCC(=O)N1CCC[C@H]1C(=O)N[C@@H](CO)C(=O)N[C@@H](CO)C(=O)NCC(=O)N[C@@H](C)C(=O)N1CCC[C@H]1C(=O)N1CCC[C@H]1C(=O)N1CCC[C@H]1C(=O)N[C@@H](CO)C(N)=O [Example 254] (H-Y[Aib]EGTFTSDYSILLDKK([AEEA-AEEA-γGlu-C20 diacid])AQQAFIEYLIEGGPSSGAPPPS-NH2)	148	2.58	0.0553	0.108	0.215

Source: patent publication US12252524B2, “GIP/GLP1 co-agonist compounds” (Eli Lilly and Company, priority 2018, dated 2025)
